Data as given in patent US10011578B2, “Compounds for stabilizing ryanodine receptors from aberrant levels of calcium release” (Rosalind Franklin University of Medicine and Science, priority 2013, dated 2018).
“Also recorded” adds a separate entry of the source.

Tests used:
[1] = Sub-chronic in vivo treatment of 3×Tg-AD mice, heart weight and body weight; design: species or system mouse; conditions: 10 mg/kg ip, 4 weeks
Protocol: Ca^2+ signaling and electrophysiological properties of CA1 pyramidal neurons were studied in hippocampal brain slices according to the protocols disclosed in Example 1. Briefly, 3×Tg-AD mice were treated with either saline (0.9%), CK013 or CK017 for four weeks (10 mg/kg; ip), and then acute hippocampal brain slice preparations were made for the purposes of performing whole cell patch clamp recordings and 2-photon calcium imaging in CA1 pyramidal neurons. The objective was to determine if our compounds could restore normal RyR-mediated calcium signaling in the AD mice and maintain normal membrane physiology.
Also, passive membrane properties such as resting membrane potential and membrane input resistance were not affected by these compounds. […] Additionally, there were no statistically significant differences in the ratio of heart weight:body weight among the treatment groups (Table 4; p>0.05), nor were there differences in absolute body weights or heart weights among the groups (data not shown; […]).

[2] = system: RyR; assay: RyR-evoked calcium response in CA1 pyramidal neurons of hippocampal brain slices, acute incubation; assay type: cell-based, mouse; conditions: 3×Tg-AD hippocampal slices, caffeine, 10 μM, 1 hour incubation
Protocol: 3×Tg-AD, TgCRND8, PS1/APP, and nontransgenic (NonTg) J29/C57BL6 control mice were bred in-house. Adult male and female mice 3-5 months old were used. Animals were cared for and used in accordance with protocols approved by the Rosalind Franklin University of Medicine and Science Animal Care and Use Committee. […] Whole-cell patch-clamp recordings were conducted at room temperature (23° C.) in continuously superfused aCSF (1.5-2.0 mL/min). […] Hippocampal CA1 pyramidal neurons were identified visually via infrared differential interference contrast (IR-DIC) optics, and electrophysiologically by their passive membrane properties and spike frequency accommodation. […] Minianalysis 6.0.7 (Synaptosoft, Fort Lee, N.J.) was used to detect and measure spontaneous excitatory postsynaptic potential (sEPSP) events with a minimal amplitude of 0.2 mV and minimal area of 3 mV*msec.
(§1) Voltage-gated Ca^2+ channel (VGCC) responses were elicited by depolarization via current injected through the patch pipette with the current level adjusted to elicit a train of 8-10 spikes.

[3] = system: RyR; assay: Sub-chronic in vivo treatment of 3×Tg-AD mice, RyR-evoked calcium responses in CA1 neurons; design: species or system mouse; conditions: 10 mg/kg ip, 4 weeks, 10 mM caffeine on acute slices
Protocol: 3×Tg-AD, TgCRND8, PS1/APP, and nontransgenic (NonTg) J29/C57BL6 control mice were bred in-house. Adult male and female mice 3-5 months old were used. Animals were cared for and used in accordance with protocols approved by the Rosalind Franklin University of Medicine and Science Animal Care and Use Committee. Hippocampal brain slices (300 μm) were prepared as previously described (Briggs et al., Neurobiol. Aging, 2013, 34:1632-1643). Mice were anesthetized with halothane, decapitated, and the brain removed into ice-cold sucrose cutting solution (200 mM sucrose, 1.5 mM KCl, 0.5 mM CaCl2, 4.0 mM MgCl2, 1.0 mM KH2PO4, 25 mM NaHCO3, 10 mM Na-ascorbate, and 20 mM dextrose, equilibrated with 95% O2/5% CO2). Horizontal hippocampal slices were prepared in a Camden Instruments vibratome with the chamber filled with ice-cold sucrose cutting solution and then transferred to and maintained in standard artificial cerebrospinal fluid (aCSF; 130 mM NaCl, 2.5 mM KCl, 2.0 mM CaCl2, 1.2 mM MgSO4, 1.25 mM NaH2PO4, 25 mM NaHCO3, and 10 mM dextrose [305-310 mOsm], equilibrated with 95% O2/5% CO2, pH 7.3-7.4) at 32° C. for at least 1 hour before use. […] Membrane potentials were obtained in current-clamp mode, acquired at 10 kHz with a Digidata 1322 A-D converter and Multiclamp 700B amplifier, and recorded and analyzed using pClamp 10.2 (Molecular Devices). […]

[4] = Log P (Table 1); assay type: physicochemical
[5] = target: T1, RyR (RyR2-expressing N2A cell line) (Mus musculus, UniProt E9Q401); assay: RyR-evoked (caffeine) calcium response in N2A cells, 2-photon fura-2 imaging; assay type: cell-based; conditions: for Ca^2+ Inc (Ca^2+ increase over baseline): caffeine-stimulated, compounds tested at 10 μM; for effect on caffeine-stimulated Ca^2+ release compared with dantrolene: 10 μM
T1 construct: tested using a RyR2-expressing N2A cell line; host or cells: N2a (Neuro-2a) cells
Protocol: All incubations and washes were at 37° C. with 10% CO2.
Glass cover slips with fura 2-AM-filled N2a cells were placed in a submersion chamber on the stage of an upright Olympus BX51 microscope which is coupled to a 2-photon laser imaging system. […] Ca^2+ imaging of individual cells was accomplished using a custom-made video-rate 2-photon imaging system. Laser excitation was provided by 100 fs pulses at 780 nm (80 MHz) from a Ti:sapphire laser (Mai Tai Broadband, Spectra-Physics). The laser beam was scanned by a resonant galvanometer (General Scanning Lumonics), allowing rapid (7.9 kHz) bidirectional scanning in the x-axis, and by a conventional linear galvanometer in the y-axis, to provide a full-frame scan rate of 30 frames/s. The laser beam was focused onto the cells through an Olympus 40× water-immersion objective (numerical aperture 0.8). Emitted fluorescence light was detected by a wide-field photomultiplier (Electron Tubes) to derive a video signal that was captured and analyzed by Video Savant 5.0 software (10 Industries). Further analysis of background-corrected images was performed using MetaMorph software. For clarity, results are expressed as inverse ratios so that increases in [Ca^2+ correspond to increasing ratios. The % change is calculated as [(F0/ΔF)−1]*100 where F0 is the average resting fluorescence at baseline and ΔF is the decrease of fluorescence reflecting Ca^2+ release. Differences between treatment groups were assessed using two-way ANOVA and Scheffe post hoc analysis for significance (p<0.05). Somatic Ca^2+ responses in all cells in the field of view were analyzed (n=8-20), with the nucleus region excluded. All compounds were tested in triplicate.

[6] = chronic oral treatment (10+ months); cited from earlier work
[7] = system: TG-CRND8 AD mice; assay: Chronic dantrolene in TgCRND8 AD mice, CP13 phospho-tau immunostaining; assay type: in vivo, mouse; conditions: 10 mg/kg IP, 4 weeks
Protocol: Mice are deeply anesthetized with urethane, the thoracic cavity opened, and cannula inserted into the left ventricle of the heart, and a small hole cut into the right atrium. Ice cold saline (3 mL) and then 4% paraformaldehyde (5 mL), or 4% paraformaldehyde/1% glutaraldehyde are perfused through the circulatory system. Following this, the mice are decapitated with sharp scissors and the brain prepared for staining or microscopy.

[8] = system: AD mouse models (3×Tg-AD and PS1/APP); assay: 4-week dantrolene treatment in AD mouse models (3×Tg-AD, APP/PS1): calcium, amyloid, synaptic integrity, RyR2 expression; assay type: in vivo
Protocol: 3×Tg-AD, TgCRND8, PS1/APP, and nontransgenic (NonTg) J29/C57BL6 control mice were bred in-house. Adult male and female mice 3-5 months old were used. Animals were cared for and used in accordance with protocols approved by the Rosalind Franklin University of Medicine and Science Animal Care and Use Committee. Hippocampal brain slices (300 μm) were prepared as previously described (Briggs et al., Neurobiol. Aging, 2013, 34:1632-1643). Mice were anesthetized with halothane, decapitated, and the brain removed into ice-cold sucrose cutting solution (200 mM sucrose, 1.5 mM KCl, 0.5 mM CaCl2, 4.0 mM MgCl2, 1.0 mM KH2PO4, 25 mM NaHCO3, 10 mM Na-ascorbate, and 20 mM dextrose, equilibrated with 95% O2/5% CO2). Horizontal hippocampal slices were prepared in a Camden Instruments vibratome with the chamber filled with ice-cold sucrose cutting solution and then transferred to and maintained in standard artificial cerebrospinal fluid (aCSF; 130 mM NaCl, 2.5 mM KCl, 2.0 mM CaCl2, 1.2 mM MgSO4, 1.25 mM NaH2PO4, 25 mM NaHCO3, and 10 mM dextrose [305-310 mOsm], equilibrated with 95% O2/5% CO2, pH 7.3-7.4) at 32° C. for at least 1 hour before use. Whole-cell patch-clamp recordings were conducted at room temperature (23° C.) in continuously superfused aCSF (1.5-2.0 mL/min). Patch pipettes (5-7 MO) were filled with intracellular solution (135 mM K-gluconate, 2.0 mM MgCl2, 4.0 mM Na2-ATP, 0.4 mM Na-GTP, 10 mM Na-phosphocreatine, 10 mM HEPES adjusted to pH 7.3 with KOH) plus 50 μM bis-fura-2 hexapotassium (Life Technologies) as fluorescent Ca^2+ sensor. Hippocampal CA1 pyramidal neurons were identified visually via infrared differential interference contrast (IR-DIC) optics, and electrophysiologically by their passive membrane properties and spike frequency accommodation. Membrane potentials were obtained in current-clamp mode, acquired at 10 kHz with a Digidata 1322 A-D converter and Multiclamp 700B amplifier, and recorded and analyzed using pClamp 10.2 (Molecular Devices). Minianalysis 6.0.7 (Synaptosoft, Fort Lee, N.J.) was used to detect and measure spontaneous excitatory postsynaptic potential (sEPSP) events with a minimal amplitude of 0.2 mV and minimal area of 3 mV*msec. See Chakroborty et al., 2012, J. Neurosci. 32(24):8341-53 for further experimental details.
as §1

[9] = Brain/plasma ratio, brain levels in vivo; conditions: for Kp: brain and plasma
[10] = Aqueous solubility at pH 7.4; assay type: physicochemical

T1 sequence (E9Q401 whole entry): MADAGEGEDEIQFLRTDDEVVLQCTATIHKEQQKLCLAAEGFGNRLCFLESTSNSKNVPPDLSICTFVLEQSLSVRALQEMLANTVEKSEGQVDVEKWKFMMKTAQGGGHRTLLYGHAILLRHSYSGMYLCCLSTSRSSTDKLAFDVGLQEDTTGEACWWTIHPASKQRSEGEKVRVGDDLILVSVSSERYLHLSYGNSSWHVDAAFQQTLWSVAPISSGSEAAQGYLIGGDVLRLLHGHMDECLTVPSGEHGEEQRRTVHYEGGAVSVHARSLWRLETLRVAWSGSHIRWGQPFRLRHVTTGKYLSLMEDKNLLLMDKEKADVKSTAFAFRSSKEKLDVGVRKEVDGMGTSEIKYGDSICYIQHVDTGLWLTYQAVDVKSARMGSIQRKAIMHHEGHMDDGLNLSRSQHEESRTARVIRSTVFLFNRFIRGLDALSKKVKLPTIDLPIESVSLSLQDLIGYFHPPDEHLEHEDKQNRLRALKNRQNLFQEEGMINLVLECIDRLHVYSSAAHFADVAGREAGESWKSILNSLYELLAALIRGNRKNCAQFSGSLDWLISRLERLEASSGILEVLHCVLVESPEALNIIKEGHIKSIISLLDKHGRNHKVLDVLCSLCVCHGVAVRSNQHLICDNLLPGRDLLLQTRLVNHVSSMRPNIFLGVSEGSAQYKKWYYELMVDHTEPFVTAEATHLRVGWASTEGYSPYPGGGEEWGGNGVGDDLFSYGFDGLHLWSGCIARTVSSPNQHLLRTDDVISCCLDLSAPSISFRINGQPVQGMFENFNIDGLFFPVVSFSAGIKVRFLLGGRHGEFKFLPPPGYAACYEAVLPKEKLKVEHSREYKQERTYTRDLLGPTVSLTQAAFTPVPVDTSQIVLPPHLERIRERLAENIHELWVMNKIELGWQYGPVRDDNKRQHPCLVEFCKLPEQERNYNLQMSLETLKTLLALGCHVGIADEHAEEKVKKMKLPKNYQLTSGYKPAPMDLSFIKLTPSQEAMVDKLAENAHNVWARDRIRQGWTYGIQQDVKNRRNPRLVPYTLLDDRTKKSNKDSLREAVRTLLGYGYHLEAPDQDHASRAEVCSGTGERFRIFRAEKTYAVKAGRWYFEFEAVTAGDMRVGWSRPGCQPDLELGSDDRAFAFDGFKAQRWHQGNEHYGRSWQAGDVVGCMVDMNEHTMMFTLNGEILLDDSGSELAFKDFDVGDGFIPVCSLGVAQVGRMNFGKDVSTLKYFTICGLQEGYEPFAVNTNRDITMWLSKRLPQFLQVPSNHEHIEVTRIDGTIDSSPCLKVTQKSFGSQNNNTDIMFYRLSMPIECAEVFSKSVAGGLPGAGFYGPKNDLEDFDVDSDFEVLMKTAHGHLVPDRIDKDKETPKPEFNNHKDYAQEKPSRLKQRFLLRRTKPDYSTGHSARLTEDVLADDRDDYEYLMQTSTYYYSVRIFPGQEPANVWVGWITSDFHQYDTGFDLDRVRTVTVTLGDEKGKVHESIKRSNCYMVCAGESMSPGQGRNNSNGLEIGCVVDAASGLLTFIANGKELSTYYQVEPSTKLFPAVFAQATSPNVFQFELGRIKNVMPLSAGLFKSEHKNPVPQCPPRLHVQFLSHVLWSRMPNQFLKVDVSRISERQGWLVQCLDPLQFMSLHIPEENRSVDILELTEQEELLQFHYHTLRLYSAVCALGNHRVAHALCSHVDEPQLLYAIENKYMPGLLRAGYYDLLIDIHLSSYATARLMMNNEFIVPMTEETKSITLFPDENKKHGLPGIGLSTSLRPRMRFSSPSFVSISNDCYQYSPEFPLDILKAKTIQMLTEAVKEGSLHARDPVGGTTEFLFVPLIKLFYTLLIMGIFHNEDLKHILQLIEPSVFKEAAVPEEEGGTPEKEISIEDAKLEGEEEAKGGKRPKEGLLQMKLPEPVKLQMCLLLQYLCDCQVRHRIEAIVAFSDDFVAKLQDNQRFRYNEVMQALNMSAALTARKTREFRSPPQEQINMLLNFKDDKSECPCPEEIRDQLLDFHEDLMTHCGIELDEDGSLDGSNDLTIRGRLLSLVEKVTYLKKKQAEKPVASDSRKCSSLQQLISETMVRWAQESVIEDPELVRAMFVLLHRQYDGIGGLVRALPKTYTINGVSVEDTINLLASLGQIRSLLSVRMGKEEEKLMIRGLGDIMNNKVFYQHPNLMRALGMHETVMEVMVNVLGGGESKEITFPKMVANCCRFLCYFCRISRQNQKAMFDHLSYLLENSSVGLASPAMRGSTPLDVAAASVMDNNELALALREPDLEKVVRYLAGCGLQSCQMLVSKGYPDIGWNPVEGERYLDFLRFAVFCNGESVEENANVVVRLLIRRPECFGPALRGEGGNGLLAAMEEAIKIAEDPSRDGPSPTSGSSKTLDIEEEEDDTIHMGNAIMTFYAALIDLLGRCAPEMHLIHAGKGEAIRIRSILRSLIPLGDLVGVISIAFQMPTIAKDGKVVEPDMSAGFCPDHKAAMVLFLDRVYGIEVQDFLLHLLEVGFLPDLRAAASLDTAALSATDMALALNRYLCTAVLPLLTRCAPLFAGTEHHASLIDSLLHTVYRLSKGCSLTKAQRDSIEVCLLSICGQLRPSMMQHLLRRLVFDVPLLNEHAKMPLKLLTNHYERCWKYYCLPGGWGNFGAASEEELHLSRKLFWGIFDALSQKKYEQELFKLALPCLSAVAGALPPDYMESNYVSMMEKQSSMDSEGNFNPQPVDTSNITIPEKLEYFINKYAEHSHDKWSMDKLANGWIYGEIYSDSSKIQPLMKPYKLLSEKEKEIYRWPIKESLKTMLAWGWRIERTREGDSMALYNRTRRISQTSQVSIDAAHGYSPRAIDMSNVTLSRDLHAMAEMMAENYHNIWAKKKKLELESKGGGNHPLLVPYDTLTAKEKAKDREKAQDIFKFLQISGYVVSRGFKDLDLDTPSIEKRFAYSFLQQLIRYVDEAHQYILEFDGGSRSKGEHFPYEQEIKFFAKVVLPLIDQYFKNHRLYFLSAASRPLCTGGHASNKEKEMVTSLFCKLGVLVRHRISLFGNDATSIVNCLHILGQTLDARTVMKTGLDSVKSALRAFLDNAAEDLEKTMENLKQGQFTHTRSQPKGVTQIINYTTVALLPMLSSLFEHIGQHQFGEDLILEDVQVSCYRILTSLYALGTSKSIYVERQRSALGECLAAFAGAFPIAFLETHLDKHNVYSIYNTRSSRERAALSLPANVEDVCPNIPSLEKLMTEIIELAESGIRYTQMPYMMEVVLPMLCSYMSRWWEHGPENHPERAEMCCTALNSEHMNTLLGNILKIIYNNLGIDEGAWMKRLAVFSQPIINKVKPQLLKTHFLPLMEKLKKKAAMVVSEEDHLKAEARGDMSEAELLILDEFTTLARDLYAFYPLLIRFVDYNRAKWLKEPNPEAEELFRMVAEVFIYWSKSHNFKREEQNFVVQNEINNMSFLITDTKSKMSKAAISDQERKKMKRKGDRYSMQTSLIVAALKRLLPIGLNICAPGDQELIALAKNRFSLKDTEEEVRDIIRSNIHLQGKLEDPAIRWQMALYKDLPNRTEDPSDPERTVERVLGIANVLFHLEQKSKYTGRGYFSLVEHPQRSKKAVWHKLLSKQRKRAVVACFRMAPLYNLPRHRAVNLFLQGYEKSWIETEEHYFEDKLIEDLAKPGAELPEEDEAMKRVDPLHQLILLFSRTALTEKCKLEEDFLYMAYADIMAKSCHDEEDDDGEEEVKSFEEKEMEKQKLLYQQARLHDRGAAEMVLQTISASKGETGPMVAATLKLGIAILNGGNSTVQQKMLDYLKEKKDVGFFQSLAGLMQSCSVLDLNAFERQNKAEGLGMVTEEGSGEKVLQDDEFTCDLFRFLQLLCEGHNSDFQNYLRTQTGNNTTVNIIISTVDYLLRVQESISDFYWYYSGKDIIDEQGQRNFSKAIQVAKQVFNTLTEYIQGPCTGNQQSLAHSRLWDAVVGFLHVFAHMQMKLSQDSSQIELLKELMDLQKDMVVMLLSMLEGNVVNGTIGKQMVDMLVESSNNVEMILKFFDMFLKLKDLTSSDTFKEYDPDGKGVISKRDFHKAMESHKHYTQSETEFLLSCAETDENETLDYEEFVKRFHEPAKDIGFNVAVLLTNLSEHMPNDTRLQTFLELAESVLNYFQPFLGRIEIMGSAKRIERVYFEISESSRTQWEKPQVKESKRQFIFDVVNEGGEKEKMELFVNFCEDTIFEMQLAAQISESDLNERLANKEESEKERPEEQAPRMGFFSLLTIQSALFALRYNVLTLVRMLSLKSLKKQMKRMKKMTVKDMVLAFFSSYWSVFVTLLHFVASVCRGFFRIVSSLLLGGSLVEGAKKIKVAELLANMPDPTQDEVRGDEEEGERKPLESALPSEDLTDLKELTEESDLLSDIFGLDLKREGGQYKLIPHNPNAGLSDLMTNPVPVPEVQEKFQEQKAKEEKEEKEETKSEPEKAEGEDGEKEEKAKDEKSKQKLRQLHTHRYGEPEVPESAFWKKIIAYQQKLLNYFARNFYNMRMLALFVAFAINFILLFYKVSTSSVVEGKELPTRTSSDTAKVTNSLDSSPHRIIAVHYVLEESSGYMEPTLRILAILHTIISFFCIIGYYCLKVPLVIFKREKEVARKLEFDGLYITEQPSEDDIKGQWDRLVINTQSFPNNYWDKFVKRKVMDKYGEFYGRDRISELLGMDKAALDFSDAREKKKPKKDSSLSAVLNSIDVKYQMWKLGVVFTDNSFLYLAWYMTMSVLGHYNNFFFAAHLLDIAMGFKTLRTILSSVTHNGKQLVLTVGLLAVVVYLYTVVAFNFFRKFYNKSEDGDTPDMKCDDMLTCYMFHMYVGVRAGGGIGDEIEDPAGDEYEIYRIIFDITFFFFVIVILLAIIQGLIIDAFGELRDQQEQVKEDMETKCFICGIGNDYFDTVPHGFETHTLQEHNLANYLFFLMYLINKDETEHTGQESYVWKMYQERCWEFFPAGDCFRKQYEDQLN

| SMILES | logP [4] | Ca^2+ Inc (Ca^2+ increase over baseline) [5] [fold] | effect on caffeine-stimulated Ca^2+ release compared with dantrolene [5] | other results |
| --- | --- | --- | --- | --- |
| O=C(N/N=C/c1ccc(-c2ccc(Cl)cc2)o1)N/N=C/c1ccc(-c2ccc(Cl)cc2)o1 [CK017] |  |  |  | Ratio of heart weight:body weight [1]: 3.6 × 10^−3; RyR-evoked calcium response in AD neurons [2]: normalized aberrant RyR-evoked calcium signals; also recorded: significantly reduced to within physiological levels; RyR-evoked calcium responses after chronic treatment [3]: not different from the NonTg control responses; also recorded: not different from the control NonTg saline treated mice |
| O=C1CN(/N=C/c2ccc(-c3ccccc3)o2)C(=O)N1 [RD05] | 1.8 | 1.43 | block calcium release to a greater degree than dantrolene; also recorded: comparable or superior effects on Ca^2+ release | CNS penetration compared with dantrolene [9]: markedly improved; brain levels relative to those of dantrolene [9]: > 50 times; Kp [9]: 0.5; solubility compared with dantrolene [10]: markedly improved solubility |
| Cc1c(-c2ccc(/C=N/NC(N)=O)o2)ccc([N+](=O)[O-])c1C [RD14] | 3.2 | 2.38 | comparable to dantrolene's effect; also recorded: comparable or superior effects on Ca^2+ release | CNS penetration compared with dantrolene [9]: markedly improved; Kp [9]: 1.6; solubility compared with dantrolene [10]: markedly improved solubility |
| O=C(N/N=C/c1ccc(-c2cccc([N+](=O)[O-])c2)o1)c1ccccn1 [RD11] | 3 | 1.38 | block calcium release to a greater degree than dantrolene |  |
| O=C(N/N=C/c1ccc(-c2ccc(Br)cc2)o1)c1ccc([N+](=O)[O-])cc1 [RD77] | 5 | >6 |  |  |
| O=C(N/N=C/c1ccc(-c2ccc([N+](=O)[O-])cc2)o1)c1ccc(Cl)cc1Cl [RD83] | 5.5 | >6 |  |  |
| O=C(Cc1ccccc1)N/N=C/c1ccc(-c2ccccc2)o1 [CK013] |  |  |  | Ratio of heart weight:body weight [1]: 4.06 × 10^−3; RyR-evoked calcium response in AD neurons [2]: normalized aberrant RyR-evoked calcium signals; also recorded: significantly reduced to within physiological levels; RyR-evoked calcium responses after chronic treatment [3]: not different from the NonTg control responses; also recorded: not different from the control NonTg saline treated mice |

Now from value to compound, other results behind:

| logP [4] | Ca^2+ Inc (Ca^2+ increase over baseline) [5] [fold] | SMILES | effect on caffeine-stimulated Ca^2+ release compared with dantrolene [5] | other results |
| --- | --- | --- | --- | --- |
| 4.4 | >6 | O=C(N/N=C/c1ccc(-c2cccc(Cl)c2Cl)o1)c1ccccn1 [RD91] |  |  |
|  | 1.96 | O=C1CN(/N=C/c2ccc(-c3ccc([N+](=O)[O-])cc3)o2)C(O)=N1 [dantrolene, 1-{[5-(4-nitrophenyl)-2-furyl]methylideneamino} imidazolidine-2,4-dione] |  | amyloid pathology [6]: increase amyloid pathology; phospho-tau (CP13) staining, dentate gyrus [7]: reduces phosphorylated tau; also recorded: significantly reduced; reduction of the evoked RyR-calcium response ([5]; caffeine (10 mM), pre-incubated 30 minutes): over 60%; soluble and insoluble Aβ deposition ([8]; 3×Tg-AD and PS1/APP, 4-week treatment, 5-10 mg/kg): significantly reduced; synaptic integrity (synaptophysin/PSD-95 colocalization), synaptic transmission properties ([8]; AD mice, 4-week treatment): restored synaptic transmission properties and synaptic integrity; ER calcium responses (soma, dendrites, dendritic spines) ([8]; AD mice, 4-week treatment, 5-10 mg/kg): returned the exaggerated ER-Ca^2+ release in dendritic spines to NonTg levels; also recorded: normalizes this calcium response; RyR2 mRNA expression levels, hippocampus ([8]; AD-Tg mice, 10 mg/kg, 4 weeks): normalized expression levels of RyR2; reduction of beta amyloid levels (4G8 immunostaining) ([8]; hippocampus and cortex, 4-week treatment): 45% |
| 3.4 | 4.25 | CN1CCN(C(=O)N/N=C/c2ccc(-c3ccc([N+](=O)[O-])cc3Cl)o2)CC1 [RD10] |  |  |
| 2.5 | 1.06 | CC(=O)N/N=C/c1ccc(-c2cccc([N+](=O)[O-])c2)o1 [RD09] | block calcium release to a greater degree than dantrolene |  |
| 5.1 | >6 | O=C(N/N=C/c1ccc(-c2ccc([N+](=O)[O-])cc2Cl)o1)Nc1ccccc1 [RD54] |  |  |
